According to ChEMBL document CHEMBL1862790, “Optimisation of fenarimol series for the treatment of Chagas disease”:
pIC50: −log10 of the molar value. Values joined by “and” are separate entries in the source; they are usually repeats but may differ in a detail not shown here. Equal values may be shown once.

Tests used:
Trypanosoma cruzi [1] = assay: microbe, parasite or virus in culture; type: functional, organism-based, Tulahuen LacZ, Clone C4
[2] = DNDI: Cytotoxicity against L-6 rat myoblasts from skeletal muscle cells; details: L6 rat skeletal muscle myoblast cells
Trypanosoma cruzi [3] = assay: microbe, parasite or virus in culture; type: functional, Tulahuen LacZ, Clone C4
[4] = Trypanosoma cruzi, Tulahuen LacZ, Clone C4

Compound	pIC50 (Trypanosoma cruzi [1]; [4])	pIC50 ([2]; IC50)	IC90 (Trypanosoma cruzi [3]; [4])	pIC50 [2]	pIC50 (Trypanosoma cruzi [1])	IC90 (Trypanosoma cruzi [3])	IC50 (Trypanosoma cruzi [1])
O=C(NC(c1ccc(Cl)cc1)c1cccnc1)c1ccc(C(F)(F)F)cc1 (configuration not stated)	6.60	4.20	690 nM				
CC(C)Oc1ccc(C(O)(c2cccnc2)c2ccccc2F)cc1 (configuration not stated)	8.48		240 nM	4.13			
O=C(NC1CCN(C(c2ccc(C(F)(F)F)cc2)c2cnccn2)CC1)C1CC1 (configuration not stated)	6.18	< 4.00	> 1000 nM		6.24	1290 nM	
FC(c1ccc(Cl)cc1)(c1cccnc1)c1ccccc1Cl (configuration not stated)	6.77	4.22	1000 nM				
CC(C)(C)NC(=O)N1CCC(NC(c2ccc(C#N)cc2)c2cccnc2)CC1 (configuration not stated)	6.23	< 4.00	996 nM				
Cc1noc(C)c1C(=O)NC1CCN(C(c2ccc(C#N)cc2)c2cccnc2)CC1 (configuration not stated)	7.29	< 4.00	104 nM				
Cc1ccccc1C(O)(c1ccc(Cl)cc1)c1cccnc1 (configuration not stated)	6.43		2780 nM	4.21			
Cn1cccc1C(O)(c1ccc(Cl)cc1)c1ccc(Cl)cc1	< 5.00	4.25	> 10000 nM				
CC(C)(C)OC(=O)N1CCC(NC(c2ccc(C(F)(F)F)cc2)c2cncs2)CC1 (configuration not stated)	8.15	4.21	19.5 nM				
O=C(NC1CCN(C(c2cncnc2)c2ccc(Cl)cc2F)CC1)c1ccc(F)cc1F (configuration not stated)	7.82	4.09	114 nM				
CC(C)c1ccc(S(=O)(=O)N2CCC(NC(c3ccc(C(F)(F)F)cc3)c3cnccn3)CC2)cc1 (configuration not stated)	7.00	4.66	270 nM				
CS(=O)(=O)N1CCN(C(c2cncnc2)c2ccc(C(F)(F)F)cc2F)CC1 (configuration not stated)	7.61	< 4.00	72.5 nM				
CC(C)(C)CC(=O)NC1CCN(C(c2ccc(Cl)cc2)c2cccnc2)CC1 (configuration not stated)	8.06	< 4.00	65 nM				
CS(=O)(=O)N1CCN(C(c2ccc(C(F)(F)F)cc2)c2cncnc2)CC1 (configuration not stated)	6.11	< 4.00	> 1000 nM				
Cc1ncsc1C(=O)N1CCC(NC(c2ccc(C(F)(F)F)cc2)c2cccnc2)CC1 (configuration not stated)	7.17	< 4.00	218 nM		7.24	180 nM	
Nc1nccnc1C(O)(c1ccc(Cl)cc1)c1ccc(Cl)cc1	< 5.00	4.20	> 10000 nM				
CC(=O)N1CCN(C(c2ccc(Cl)cc2)c2cccnc2)CC1 (configuration not stated)		< 4.00	960 nM			820 nM and 930 nM and 520 nM	490 nM [middle of 4 runs]
Cc1cc(C(=O)N2CCN(C(c3cccnc3)c3ccc(Cl)cc3F)CC2)no1 (configuration not stated)	7.18	4.16	278 nM				
OC(c1ccc(Cl)cc1)(c1cccnc1)c1cnc(Cl)nc1 (configuration not stated)		< 4.00			6.79 and 6.32	339 nM and 850 nM	
CC(C)(C)NC(=O)NC1CCN(C(c2ccc(Cl)cc2)c2cccnc2)CC1 (configuration not stated)	7.20	< 4.00	190 nM				
CS(=O)(=O)NC1CCN(C(c2ccc(C#N)cc2)c2cccnc2)CC1 (configuration not stated)	6.22	< 4.00	> 1000 nM				
CS(=O)(=O)N1CCC(CNC(c2ccc(C(F)(F)F)cc2)c2cnccn2)CC1 (configuration not stated)	6.35	< 4.00	940 nM				
CS(=O)(=O)NC(c1ccc(C(F)(F)F)cc1)c1cnccn1 (configuration not stated)	< 5.00	< 4.00	> 10000 nM				
CS(=O)(=O)c1ccc(N2CCC(NC(c3cccnc3)c3cnn(CC(F)(F)F)c3)CC2)cc1 (configuration not stated)	5.38	< 4.00	> 10000 nM				
OC(c1ccc(Cl)cc1)(c1ccc(Cl)cc1)c1cc(-c2ccccc2)on1	< 5.00	4.27	> 10000 nM				
Cn1ccnc1C(=O)NC1CCN(C(c2ccc(C#N)cc2)c2cccnc2)CC1 (configuration not stated)	6.62	< 4.00	482 nM				
N#Cc1ccc(C(c2cccnc2)N2CCC(NC(=O)c3nccs3)CC2)cc1 (configuration not stated)	6.86	< 4.00	358 nM				

Compound	pIC50 (Trypanosoma cruzi [1]; [4])	pIC50 ([2]; IC50)	IC90 (Trypanosoma cruzi [3]; [4])	pIC50 [2]	pIC50 (Trypanosoma cruzi [1])	IC90 (Trypanosoma cruzi [3])	IC50 (Trypanosoma cruzi [1])
CN(C)C(=O)C1CCN(C(c2ccc(C(F)(F)F)cc2)c2cnccn2)CC1 (configuration not stated)	6.00	< 4.00	3410 nM				
CCOC(=O)N1CCN(C(c2cccnc2)c2ccc(Cl)cc2F)CC1 (configuration not stated)	7.62	4.22	76 nM				
Cc1cc(C(=O)NC2CCN(C(c3cncnc3)c3ccc(Cl)cc3F)CC2)[nH]n1 (configuration not stated)	6.76	< 4.00	756 nM				
Cc1ncsc1C(=O)NC1CCN(C(c2ccc(C(F)(F)F)cc2)c2cccnc2)CC1 (configuration not stated)	7.74	4.22	82 nM				
CC(C)c1ccc(NC(=O)NC2CCN(C(c3ccc(Cl)cc3)c3cccnc3)CC2)cc1 (configuration not stated)	8.52	< 4.00	30 nM				
CCC(=O)NC(c1ccc(C(F)(F)F)cc1)c1cnccn1 (configuration not stated)	< 6.00	< 4.00	> 1000 nM				
O=S(=O)(NC1CCN(C(c2ccc(C(F)(F)F)cc2)c2cnccn2)CC1)c1ccccc1 (configuration not stated)	6.59	4.25	900 nM				
O=C(c1ccccc1)N1CCN(C(c2ccc(Cl)cc2)c2cncnc2)CC1 (configuration not stated)	6.30	4.12	950 nM				
O=C(NC1CC1)N1CCN(C(c2ccc(C(F)(F)F)cc2)c2cncnc2)CC1 (configuration not stated)	< 6.00	< 4.00	> 1000 nM				
OC(c1ccc(Cl)cc1)(c1cccnc1)c1nccs1 (configuration not stated)	6.70	< 4.00	505 nM				
O=C(NC1CCN(C(c2cccnc2)c2ccc(Cl)cc2F)CC1)C1CC1 (configuration not stated)	7.42	< 4.00	130 nM				
CC(C)(C)N1CCC(NC(c2ccc(Cl)cc2)c2cccnc2)CC1 (configuration not stated)	5.51	< 4.00	8660 nM				
CN(C)C(=O)N1CCN(C(c2ccc(Cl)cc2)c2cncnc2)CC1 (configuration not stated)	6.21	< 4.00	> 1000 nM				
CCS(=O)(=O)NC1CCN(C(c2cnccn2)c2ccc(F)cc2F)CC1 (configuration not stated)	5.72	< 4.00	5420 nM				
O=S(=O)(NC(c1ccc(C(F)(F)F)cc1)c1cnccn1)c1ccccc1 (configuration not stated)	5.44	< 4.00	7670 nM				
CCCCOC(c1ccc(Cl)cc1)c1cccnc1 (configuration not stated)	6.91	4.20	296 nM				
Clc1ccc(C(NC2CCN(c3ccc(Cl)cn3)CC2)c2cccnc2)cc1 (configuration not stated)	7.46	4.18	76 nM				
N#CC(c1ccc(Cl)cc1)N1CCN(c2ccccc2)CC1 (configuration not stated)	< 6.00	< 4.00	> 1000 nM				
CS(=O)(=O)N1CCC(C(=O)NC(c2ccc(Cl)cc2)c2cccnc2)CC1 (configuration not stated)	5.22	< 4.00	> 10000 nM				
O=C(C1CCC1)N1CCN(C(c2cncnc2)c2ccc(Cl)cc2F)CC1 (configuration not stated)	6.38	< 4.00	868 nM				
CC(C)(C)OC(=O)NC1CCN(C(c2ccc(C(F)(F)F)cc2)c2cnccn2)CC1 (configuration not stated)	6.80	4.25	400 nM				
Nc1ncc(C(O)(c2ccc(Cl)cc2)c2cccnc2)cn1 (configuration not stated)	6.54	< 4.00	910 nM				
O=S(=O)(Cc1ccccc1)N1CCN(C(c2cncnc2)c2ccc(Cl)cc2F)CC1 (configuration not stated)	7.14	4.20	180 nM				
OC(c1cccnc1)(c1cccc(F)c1)c1ccccc1Cl (configuration not stated)	6.25		> 1000 nM	< 4.00	6.12		
Cc1cc(C(=O)NC2CCN(C(c3ccc(C#N)cc3)c3cccnc3)CC2)n(C)n1 (configuration not stated)	7.24	< 4.00	130 nM		7.33	97.5 nM	
O=S(=O)(c1ccc(C(F)(F)F)cc1)N1CCC(NC(c2ccc(C(F)(F)F)cc2)c2cnccn2)CC1 (configuration not stated)	6.89	4.39	290 nM				
